# Patent publication US11484591B2, “Chemoprevention using controlled-release formulations of anti-interleukin 6 agents, synthetic vitamin A analogues or metabolites, and estradiol metabolites” (OHIO STATE INNOVATION FOUNDATION, priority 2016, dated 2022)
# “Also recorded” adds a separate entry of the source.
# Key:
# sIL-6R = sIL-6R release from OSCC cell lines (ELISA); assay type: cell-based, human; conditions: 5 μM 4-HPR, 2.5 μM 2-ME, 1 μg/ml TOC, 24 h
# Method: FIGS. 5A and 5B show the evaluation of the effects of single and combination treatment of fenretinide (4-HPR, 5 μM), 2-methoxyestradiol (2-ME, 2.5 μM) and the IL-6R inhibitor TOC (1 ug/ml) on STAT3-DNA binding and on release of the stromal and tumor cell activating, trans-signaling molecule, sIL-6R. (A) Treatment effects of STAT3-DNA binding. All cell lines with constitutive pSTAT3 expression (2095sc, JSCC1, JSCC2) were sera deprived for 24 h, followed by an additional 24 hours of treatment in sera-free medium that contained: control (0.1% DMSO), 5 μM 4-HPR, 2.5 μM 2-ME, 1 μg/ml TOC (initial agent concentrations same for single and combinations). As the JSCC3 cells don't constitutively express pSTAT3, these cells underwent 24 h stimulation in base medium supplemented with 10 ng/mL of IL-6 and 5 ng/mL of TGF-α, with or without 4-HPR, 2-ME and TOC followed by harvest. […] (n=13, Kruskal Wallis ANOVA followed by Dunn's Multiple Comparison post hoc test). […] (B) Effects of treatment on cell line release of sIL-6R. All four cell lines released sIL-6R [levels ranges from ˜750 fg/10^6 (JSCC2 cells baseline) to ˜3,000 fg/10^6 cells (stimulated JSCC3 cells, baseline production JSCC3˜2,000 fg/10^6 cells). […]
# SCC2095sc cells [1] = experiment: OSCC tumor xenografts, tumor volume; assay type: in vivo, nude mice; conditions: for inhibition of established OSCC tumor growth / tumor size: discussion of xenograft study
# Method: One million SCC2095sc cells (suspended in 100 μl Matrigel) were subcutaneously injected in flanks of 6 to 7 week old male nude mice (n=6 per treatment group). By day 14 post injection, all mice had palpable and measurable tumors. Treatment began on day 15. Caliper-based tumor measurements were recorded daily and final tumor volumes calculated via tumor volume V=(length×width)×½. Treatment groups consisted of: 1) control (PBS injections)+blank (no drug) polylactide co-glycolide (PLGA) implants, 2) 2-methoxyestradiol (2-ME) (1 μg/100 μl PBS, b.i.d.)+blank PLGA implant, 3) fenretinide (4-HPR) releasing PLGA implant+PBS injections, 4) tocilizumab (TOC) q.d. (0.3 μg/100 μl PBS)+PLGA blank implant, 5) 2-ME (1 μg/100 μl PBS, b.i.d.)+4-HPR releasing PLGA implant, 6) 2-ME (1 μg/100 μl PBS, b.i.d.)+TOC q.d. (0.3 μg/100 μl PBS)+blank PLGA implant, 7) TOC q.d. (0.3 μg/100 μl PBS)+4-HPR releasing PLGA implant, 8) 2-ME (1 μg/100 μl PBS, b.i.d.)+TOC q.d. (0.3 μg/100 μl PBS)+4-HPR releasing PLGA implant. In previous studies that employed younger mice tumors of varying sizes were disbursed among all treatment groups. Due to the older age of mice >6 weeks and the accompanying cage aggression tumor size distribution was not feasible in these studies. As a result, mean tumor volumes varied appreciably among treatment groups. PLGA implants (trocar placement) and injections were placed in the center of the tumor. Fluid dispersion throughout tumor was noted during injections. At day 28 post OSCC xenograft placement the mice were sacrificed, OSCC tumors along with lung and liver tissues and sera were harvested (for PK and histologic analyses). […] Provided the discrepancy in pretreatment tumor volumes (TOC the lowest, triple treatment second highest with its mean nearly two fold higher than TOC mean), the TOC+2-ME+4-HPR data are especially creditable.
# (§1) SCC2095sc cells [10^6 cells suspended in 100 μl Matrigel (Corning Life Sciences, Corning, N.Y.)] were subcutaneously injected in the flanks of 6 week old male nude mice (n=6 per treatment group). Tumor measurements were recorded daily with calipers (greatest length and greatest width) and final tumor volumes calculated via tumor volume V=(length×width)×½. Treatment groups consisted of: 1) control (PBS injections)+blank (no drug) PLGA implants, 2) 2-ME (1 μg/100 μl PBS, b.i.d.)+blank PLGA implant, 3) 4-HPR releasing PLGA implant+PBS injections, 4) TOC q.d. (0.3 μg/100 μl PBS)+PLGA blank implant, 5) 2-ME (1 μg/100 μl PBS, b.i.d.)+4-HPR releasing PLGA implant, 6) 2-ME (1 μg/100 μl PBS, b.i.d.)+TOC q.d. (0.3 μg/100 μl PBS)+blank PLGA implant, 7) TOC q.d. (0.3 μg/100 μl PBS)+4-HPR releasing PLGA implant, 8) 2-ME (1 μg/100 μl PBS, b.i.d.)+TOC q.d. (0.3 μg/100 μl PBS)+4-HPR releasing PLGA implant. By day 14 post injection, all mice had measurable tumors and treatment began on day 15. […] Pretreatment mean tumor volumes therefore varied among treatment groups. PLGA implants (via trocar) and injections were placed in the center of the tumor. At day 28 post OSCC xenograft placement final tumor measurements were obtained, the mice were euthanized and OSCC tumors along with lung, liver and sera were harvested for pharmacokinetic, histologic and IHC analyses (Ki-67, cleaved caspase-3 and involucrin). Image analyses of the nuclear stains (Ki-67 and cleaved caspase 3) were conducted using Image-Pro Plus 6.2 software (Media Cybernetics, Rockville, Md.).
# [2] = cited from earlier work
# HNSCC tumor = conditions: 100 μg i.p., scid mice, reference 48; cited from earlier work
# [3] = 4-HPR release from PLGA implants, tumor and sera levels (UPLC/UV); assay type: in vivo, nude mice; conditions: UPLC/UV vs calibration standard
# From the text: Determination of 4-HPR tumor levels entailed recording tumor wet mass, addition of internal standard (acitretin) and RIPA lysis buffer, followed by homogenization, addition of acetonitrile and centrifugation. Acetretin percent recovery was compared to a RIPA buffer/acetonitrile extraction control solution spiked with equivalent amount of acetretin and 4-HPR. Sera preparation entailed addition of acetretin and acetonitrile, sonication, followed by centrifugation.
# as §1
# [4] = tested on: EGFR, ERK1/2 and STAT3 phosphorylation; experiment: Effect of receptor targeted inhibitors on OSCC signaling (immunoblot); assay type: cell-based, human; conditions: 100 nM
# Method: The accompanying histogram depicts levels of phosphorylated […], ERK1/2 and STAT3 relative to GAPDH.
# Dosing levels were determined by concurrent proliferation and viability studies in conjunction with literature values. The cells in every treatment group were then stimulated for 20 minutes with: vehicle (1 μl ddH2O), 50 ng/ml EGF, 50 ng/ml VEGF, or 50 ng/ml EGF+50 ng/ml VEGF, followed by standard immunoblotting and data normalization relative to GAPDH. […] Immunoblot images were captured (Li-Cor Odyssey imager) and analyzed (Li-Cor Image Studio, Version 4.0) to depict effects on treatment on phosphorylation relative to respective levels of GAPDH.
# [5] = tested on: NF-κB subunits p65 and p50; experiment: NF-κB subunit DNA binding and activation in OSCC cells; assay type: cell-based, human; conditions: data not shown
# Method: Twenty four hour sera-deprived cells were treated for an additional 24 hours in sera free media with the following: 1) 0.01% DMSO (vehicle control), 2) 5 μM 4-HPR, 3) 2.5 μM 2-ME, 4) 1 μg/ml tocilizumab (TOC, […]) 5) 5 μM 4-HPR+2.5 μM 2-ME, 6) 5 μM 4-HPR+1 μg/ml TOC, 7) 2.5 μM 2-ME+1 μg/ml TOC, 8) 5 μM 4-HPR+2.5 μM 2-ME+1 μg/ml TOC. Following treatment, conditioned media were collected (ELISAs for IL-6, sIL-6R, TGF-α, VEGF, EGF, R&D Systems, Minneapolis, Minn.) and nuclear and cytosolic lysates (Nuclear Extract Kit, Active Motif, Carlsbad, Calif.) isolated for EMSAs (STAT3, NFκB p50 and p65, TransAM Transcription Factor ELISAs, Active Motif) and cytosolic and nuclear extracts for Westerns (NE-PER Nuclear and Cytoplasmic Extraction Reagents, ThermoFisher Scientific, Waltham Mass.). […]
# SCC2095sc cells [6] = experiment: IHC of OSCC xenograft tumors (Ki-67, cleaved caspase 3, involucrin); assay type: in vivo, nude mice; conditions: qualitative
# From the text: IHC images representative of all of the groups are presented. The PLGA implants are visible as a clear cylindrical object in every photomicrograph except the TOC and 2-ME+TOC treatment. To facilitate PLGA implant recognition, arrows have been placed within the implants. Both the Ki-67 and caspase 3 stains are located within the nucleus. Qualitative Ki67 staining assessment was most apparent at the periphery of the tumors in all groups. In contrast to the abundant Ki-67 staining, cleaved caspase 3 was not nearly as prominent.
# (Image scale 4× and 10× for smaller and larger photomicrographs, respectively).
# SCC2095sc cells [10^6 cells suspended in 100 μl Matrigel (Corning Life Sciences, Corning, N.Y.)] were subcutaneously injected in the flanks of 6 week old male nude mice (n=6 per treatment group). Tumor measurements were recorded daily with calipers (greatest length and greatest width) and final tumor volumes calculated via tumor volume V=(length×width)×½. Treatment groups consisted of: 1) control (PBS injections)+blank (no drug) PLGA implants, 2) 2-ME (1 μg/100 μl PBS, b.i.d.)+blank PLGA implant, 3) 4-HPR releasing PLGA implant+PBS injections, 4) TOC q.d. (0.3 μg/100 μl PBS)+PLGA blank implant, 5) 2-ME (1 μg/100 μl PBS, b.i.d.)+4-HPR releasing PLGA implant, 6) 2-ME (1 μg/100 μl PBS, b.i.d.)+TOC q.d. (0.3 μg/100 μl PBS)+blank PLGA implant, 7) TOC q.d. […]
# [7] = In vitro release of 2-ME from PLGA; assay type: physicochemical; conditions: two low molecular weight acid-capped PLGA 50/50s, 10% 2-ME loading
# From the text: In one embodiment, 2-ME in PLGA can maximize drug loading and facilitate continuous release of the steroid over the correct time scale of release in vivo. Maximizing drug loading can provide more flexibility for dosing and increase the probability of attaining local therapeutic levels. IN one embodiment, the steroid is slowly and continuously released for >1 month in vitro from two different low molecular weight acid-capped PLGA 50/50s at 10% 2-ME loading.
# 2-ME with/without excipients can be combined with acid-capped PLGA 50/50 (13-24 kD) in acetone and extruded. Drug loading is typically about 10-50%. Drug loading can be determined by HPLC after dissolving implants in acetonitrile. Release kinetics in vitro can be performed in PBS+0.02% Tween 80 (PBST) at 37° C. under perfect sink conditions with HPLC detection.
compound,measurement,setting,value
TOC: humanized monoclonal antibody to the IL-6R receptor tocilizumab,sIL-6R release,sIL-6R,significantly reduced
same,sIL-6R release,sIL-6R; listed as tocilizumab,significantly inhibited
same,mean tumor fold size increase,"SCC2095sc cells [1]; day 15 to day 28, intratumoral treatment",2.13 fold
same,inhibition of established OSCC tumor growth / tumor size,SCC2095sc cells [1],significantly inhibited OSCC tumor growth
same,increase in tumor volume over 14 days,"SCC2095sc cells [1]; intratumoral, TOC 0.3 μg q.d., 2-ME 1 μg b.i.d., 4-HPR PLGA implant, paired t test",prevented a significant increase in tumor volume
same,half-life,[2],~19 h
same,HNSCC tumor initiation,HNSCC tumor,significantly reduced HNSCC tumor initiation
same,established tumor growth,HNSCC tumor,didn't significantly inhibit established tumor growth
"CC1=C(/C=C/C(C)=C/C=C/C(C)=C/C(=O)Nc2ccc(O)cc2)C(C)(C)CCC1=O [4-oxo-4-HPR, 4-oxo-fenretinide]",oxidized metabolite in tumor or sera samples,[3],no evidence
COC(=O)c1ccc2c(c1)NC(=O)/C2=C(\Nc1ccc(N(C)C(=O)CN2CCN(C)CC2)cc1)c1ccccc1 [Vargatef],phosphorylated STAT3 despite treatment,[4]; JSCC1 and JSCC2 cells,high to moderate levels of phosphorylated STAT3 persisted; also recorded: pSTAT3 persisted
same,"phosphorylation at the EGFR, ERK1/2 and STAT3 levels","[4]; JSCC3 cells, 1 h pretreatment, EGF/VEGF stimulation",reduced phosphorylation; also recorded: blocked STAT3 phosphorylation
"COc1cc2c(cc1O)CC[C@@H]1[C@@H]2CC[C@]2(C)[C@@H](O)CC[C@@H]12 [2-ME, 2-Methoxyestradiol]",NF-κB activation in OSCC cells,[5],didn't inhibit
same,tumor cell invasion and metastasis,SCC2095sc cells [1]; 2-ME treatment group,Lymphovascular (several mice) and perineural (single mouse) invasion
same,inhibition of established OSCC tumor growth / tumor size,SCC2095sc cells [1],lack of 2-ME efficacy
same,involucrin expression (differentiation),SCC2095sc cells [6],most intense expression
same,duration of slow continuous release in vitro,[7],> 1 month
same,half-life,[2],~4 h
